Results taken from ChEMBL document CHEMBL5244222, “A comprehensive review on xanthone derivatives as α-glucosidase inhibitors” (Eur J Med Chem, 2018).
In brackets after ≈: the same amount, converted by molar mass. Each block holds one molecule with its values, some of them ahead of it.

Columns and labels:
Alpha-glucosidase [1] = target: T1, Alpha-glucosidase (Saccharomyces cerevisiae S288c, UniProt P53341+P38158+P07265); assay: Inhibition of Saccharomyces cerevisiae alpha-glucosidase assessed as release of p-nitrophenol using pNPG as substrate preincubated for 15 mins followed by substrate addition and measured after 30 mins by spectrophotometric analysis; format: protein assay
Rattus norvegicus [2] = organism: Rattus norvegicus; assay: Inhibition of rat intestine alpha-glucosidase using MUG as substrate at 65 uM preincubated for 15 mins followed by substrate addition and measured after 30 mins by fluorescence microplate reader analysis; format: tissue-based; conditions: time 45.0 min
[3] = Inhibition of rat intestine alpha-glucosidase using p-nitrophenyl-alpha-D-glucopyranoside as substrate preincubated for 10 mins followed by substrate addition and measured after 5 mins by spectroscopic analysis; format: tissue-based
Alpha glucosidase [4] = target: T2, Alpha glucosidase (Homo sapiens, UniProt O43451+P10253+P14410+Q2M2H8); assay: Inhibition of alpha-glucosidase (unknown origin) at 40 uM; format: protein assay
[5] = Inhibition of rice alpha-glucosidase using p-nitrophenyl-alpha-D-glucopyranoside as substrate preincubated for 15 mins followed by substrate addition and measured after 90 mins by spectroscopic analysis
Alpha-glucosidase [6] = target: T1, Alpha-glucosidase; assay: Inhibition of Saccharomyces cerevisiae alpha-glucosidase assessed as release of p-nitrophenol using pNPG as substrate preincubated for 15 mins followed by substrate addition and measured after 15 mins by plate reader analysis; format: protein assay
Alpha-glucosidase [7] = target: T1, Alpha-glucosidase; assay: Inhibition of baker's yeast alpha-glucosidase using PNP as substrate preincubated for 30 mins followed by […] addition and measured after 1 mins by UV spectrophotometric analysis; format: protein assay
Alpha-glucosidase [8] = target: T1, Alpha-glucosidase; assay: Inhibition of Saccharomyces cerevisiae alpha-glucosidase assessed as release of p-nitrophenol using pNPG as substrate preincubated for 5 mins followed by substrate addition and measured after 30 mins by absorbance assay; format: protein assay
Rattus norvegicus [9] = organism: Rattus norvegicus; assay: Inhibition of rat intestine alpha-glucosidase using MUG as substrate at 100 uM preincubated for 15 mins followed by substrate addition and measured after 30 mins by fluorescence microplate reader analysis; format: tissue-based; conditions: time 45.0 min
Alpha glucosidase [10] = target: T2, Alpha glucosidase; assay: Inhibition of alpha-glucosidase (unknown origin) using PNPG as substrate preincubated for 15 mins followed by substrate addition by microplate reader assay; format: protein assay
[11] = Inhibition of rat jejunum sucrase; format: tissue-based
[12] = Inhibition of rat jejunum isomaltase; format: tissue-based
Rattus norvegicus [13] = organism: Rattus norvegicus; assay: Inhibition of rat jejunum maltase at 300 ug/ml; format: tissue-based; conditions: dose 300.0 µg/ml
Alpha-glucosidase [14] = target: T1, Alpha-glucosidase; assay: Inhibition of Saccharomyces cerevisiae alpha-glucosidase assessed as release of p-nitrophenol using pNPG as substrate preincubated for 15 mins followed by substrate addition and measured after 15 mins by spectrophotometric analysis; format: protein assay
Alpha-glucosidase [15] = target: T1, Alpha-glucosidase; assay: Inhibition of Saccharomyces cerevisiae alpha-glucosidase using PNPG as substrate incubated for 30 mins by spectrophotometric assay; format: protein assay
Alpha-glucosidase [16] = target: T1, Alpha-glucosidase; assay: Inhibition of Saccharomyces cerevisiae alpha-glucosidase using PNPG as substrate preincubated for 15 mins followed by substrate addition and measured after 30 mins by spectrophotometric assay; format: protein assay
Alpha-glucosidase [17] = target: T1, Alpha-glucosidase; assay: Mixed-type inhibition of Saccharomyces cerevisiae alpha-glucosidase using PNPG as substrate incubated for 30 mins by Lineweaver-Burk double-reciprocal plot analysis; format: protein assay
Alpha-glucosidase [18] = target: T1, Alpha-glucosidase; assay: Inhibition of Saccharomyces cerevisiae alpha-glucosidase using maltose as substrate incubated for 30 mins by spectrophotometric assay; format: protein assay
Alpha-glucosidase [19] = target: T1, Alpha-glucosidase; assay: Inhibition of Saccharomyces cerevisiae alpha-glucosidase using pNPG as preincubated for 10 mins followed by substrate addition and measured after 30 mins by spectroscopic analysis; format: protein assay
Alpha-glucosidase [20] = target: T1, Alpha-glucosidase; assay: Inhibition of Saccharomyces cerevisiae alpha-glucosidase using pNPG as preincubated for 15 mins followed by substrate addition and measured after 30 mins by spectroscopic analysis
[21] = target: Alpha-glucosidase (Saccharomyces cerevisiae S288c) (UniProt P53341+P38158+P07265); assay: Inhibition of Saccharomyces cerevisiae alpha-glucosidase using p-NP-alpha-G as substrate at 100 uM by spectroscopic analysis; format: protein assay
Prunus dulcis = assay: Inhibition of almond beta-glucosidase using p-NP-beta-G as substrate at 100 uM by spectroscopic analysis

Structure (SMILES): COC(=O)c1c(O)ccc2oc3cc(C(=O)O)cc(O)c3c(=O)c12
IC50 (Alpha-glucosidase [1]): 260 µM

Structure (SMILES): C[C@H]1O[C@H](O[C@H]2[C@H](O)[C@@H](O)[C@@H](O[C@H]3[C@H](O)[C@@H](O)C(O)O[C@@H]3CO)O[C@@H]2CO)[C@H](O)[C@@H](O)[C@@H]1N[C@H]1C=C(CO)[C@@H](O)[C@H](O)[C@H]1O (stereo partly specified) [ACARBOSE]
inhibition (Rattus norvegicus [2]): 50%
IC50 [3]: 1820 µM
inhibition (Alpha glucosidase [4]): 5.4%
IC50 [5]: 2.39 µg/mL (≈ 3.7 µM)

Structure (SMILES): O=c1c2cc(O)ccc2oc2cc(O)cc(O)c12
IC50 (Alpha-glucosidase [6]): 3.2 µg/mL (≈ 13.1 µM)
IC50 (Alpha-glucosidase [7]): 14.7 µM

Structure (SMILES): CC1(C)C=Cc2c(cc3oc4c(O)c5c(cc4c(=O)c3c2O)C=CC(C)(C)O5)O1
IC50 (Alpha-glucosidase [8]): > 100 µM

Structure (SMILES): O=c1c2cc(O[C@H]3O[C@@H](O)[C@H](O)[C@@H](O)[C@@H]3O)c(O)cc2oc2cc(O)c([C@H]3O[C@@H](CO)[C@H](O)[C@@H](O)[C@@H]3O)cc12
IC50 [5]: 158 µg/mL (≈ 285 µM)

Structure (SMILES): O=c1c2cc(O)c(O)cc2oc2c([C@H]3O[C@@H](CO)[C@H](O)[C@@H](O)[C@@H]3O)c(O)cc(O)c12
inhibition (Rattus norvegicus [9]): 50%
IC50 (Alpha glucosidase [10]): 76.98 µg/mL (≈ 182 µM)

Structure (SMILES): O=c1c2cc(O)c(O)cc2oc2cc(O)c([C@H]3O[C@@H](CO)[C@H](O)[C@@H](O)[C@@H]3O)c(O)c12
IC50 [11]: 87 µg/mL (≈ 206 µM)
IC50 [12]: 216 µg/mL (≈ 511 µM)
inhibition (Rattus norvegicus [13]): 42%
inhibition (Rattus norvegicus [9]): 53%
IC50 [3]: 52200 µM
IC50 [5]: 96.1 µg/mL (≈ 228 µM)

Structure (SMILES): CC1(C)C=Cc2c(cc3oc4ccc(O)cc4c(=O)c3c2O)O1
IC50 (Alpha-glucosidase [8]): > 100 µM

Structure (SMILES): COc1cc(O)c2c(=O)c3c(O)c(O[C@@H]4OC[C@@H](O)[C@H](O)[C@H]4O[C@@H]4O[C@@H](C)[C@H](O)[C@@H](O)[C@H]4O)ccc3oc2c1
IC50 (Alpha-glucosidase [19]): 36 µM
IC50 (Alpha-glucosidase [20]): 765 µM

Structure (SMILES): OC[C@H]1NC[C@H](O)[C@@H](O)[C@@H]1O
inhibition [21]: 79.6%
inhibition (Prunus dulcis): 81.2%

Structure (SMILES): COC(=O)c1cc(O)cc2oc3cc(C)cc(O)c3c(=O)c12
IC50 (Alpha-glucosidase [1]): 2980 µM

Other lines, results leading:

inhibition (Alpha glucosidase [4]): 98.8%
Structure (SMILES): COc1cc(O[C@H]2O[C@@H](CO)[C@H](O)[C@H](O)[C@@H]2O)c2c(=O)c3ccc(OC)c(OC)c3oc2c1

IC50 (Alpha-glucosidase [14]): 40 µM
Structure (SMILES): COC(=O)c1c(O)c(O)cc2oc3c(Cl)c(C)c(Cl)c(O)c3c(=O)c12

IC50 (Alpha-glucosidase [8]): 29.36 µM
Structure (SMILES): CC(C)=CCc1cc2c(=O)c3c(O)c4c(cc3oc2c(O)c1O)OC(C)(C)C=C4

IC50 (Alpha-glucosidase [15]): 6.9 µM
IC50 (Alpha-glucosidase [16]): 394 µM
Ki (Alpha-glucosidase [17]): 2.8 µM
IC50 (Alpha-glucosidase [18]): 35.3 µM
Structure (SMILES): CC(C)=CC/C(C)=C/Cc1c(O)cc2oc3c(O)ccc(O)c3c(=O)c2c1O

IC50 (Alpha-glucosidase [8]): 8.9 µM
Structure (SMILES): C=CC(C)(C)c1c(O)ccc2c(=O)c3c(O)c(CC=C(C)C)c(OC)c(O)c3oc12

IC50 (Alpha-glucosidase [8]): > 100 µM
Structure (SMILES): CC(C)=CCc1c(O)cc2oc3ccc(O)cc3c(=O)c2c1O

IC50 (Alpha-glucosidase [15]): 10.8 µM
IC50 (Alpha-glucosidase [16]): 84 µM
Ki (Alpha-glucosidase [17]): 8.5 µM
IC50 (Alpha-glucosidase [18]): 37.7 µM
Structure (SMILES): C=C(C)/C=C/c1c(O)c(CC=C(C)C)c2oc3c(O)ccc(O)c3c(=O)c2c1O
